These results are taken from US20100204110A1, “USE OF A PEPTIDE AS A THERAPEUTIC AGENT” (priority 2007, published 2010).

Ends that are not written are not given here.

The subject of one assay is HIV-1IIIB. The experiment in a line: HIV-1 antiviral assay in CEM-SS cells (MTS). Format: cell-based. The following applies: positive controls; CEM-SS cells plus HIV-1IIIB.
The subject of assay [1] is hepatitis B virus (HBV) ayw strain. The assay is described as follows: HBV assay in HepG2-2.2.15 cells (TaqMan PCR of HBV DNA). Format: cell-based. The settings on record: 10 micrograms per ml, six days. The source says: HepG2-2.2.15 is a stable cell line containing the hepatitis B virus (HBV) ayw strain genome (ATCC Cat. No. CRL-11997). Antiviral compounds blocking any late step of viral replication such as transcription, translation, pregenome encapsidation, reverse transcription, particle assembly and release can be identified and characterized using this cell line. In this assay, an active compound will reduce the production of secreted HBV from cells, measured by utilizing real time quantitative PCR (TaqMan) assay to directly and accurately measure HBV DNA copies.
HepG2-2.2.15 cells were plated in 96-well microtiter plates. After 16-24 hours the confluent monolayer of HepG2-2.2.15 cells was washed and the medium was replaced with complete medium containing test peptides—10 micrograms per ml—in duplicate. […] Six days following the initial administration of the peptides, the cell culture supernatants was collected, treated with pronase and DNAse and then used in a real-time quantitative TaqMan PCR assay. The PCR-amplified HBV DNA was detected in real-time by monitoring increases in fluorescence signals that result from the exonucleolytic degradation of a quenched fluorescence probe molecule that hybridizes to the mplified HBV DNA. […] Antiviral activity was calculated from the reduction in HBV DNA levels (% virus control). […]
Background: Real-time PCR tracks product formation cycle by cycle.

Assay [2] concerns Primary Human endothelial cells (HUVEC). The assay is described as follows: Endothelial cell migration assay. The following applies: 10 micrograms per ml, 22 hours, combination peptide 1:peptide 2 0.95 mole:1.05 mole.
Protocol: Primary Human endothelial cells (HUVEC) were seeded in insert chambers with 3 micrometer pore size of multi-transwell plate for 6 hours at 37° C. in Endothelial Cell Basal Medium (EBM) supplemented with 0.1% bovine serum albumin. Thereafter, designated concentration of testing peptides—10 micrograms per ml—was added in duplicate wells. The endothelia were allowed to migrate for 22 hours at 37° C., then, migrated cells were fixed and stained with Hoechst 33342 dye. Images of 3 fields per insert were taken and the number of migrated cells per field were quantified using the ImageProPlus software. Data were analyzed for the average number of the migrated cells and standard deviation of six data points for each treatment condition. […] Statistic p values were computed using the Student's t-test.
A further assay concerns HUVEC. The assay is described as follows: Endothelial tube formation assay. The settings on record: 10 micrograms per ml, 20 hours, combination peptide 1:peptide 2 1.10 mole:0.90 mole.
In a further assay the test system is HCMV strain AD169. The experiment in a line: HCMV plaque formation assay in MRC-5 cells. The following applies: 10 micrograms per ml, 7-10 days.
The next assay concerns RAW 264.7 cells. The assay is described as follows: Phagocytosis assay (Fluorescein-labeled Escherichia coli, flow cytometry). The following applies: 10 micrograms per ml, combination peptide 1 : peptide 2 1.10 mole : 0.90 mole. For orientation: Flow cytometry measures light scatter and fluorescence of single cells or particles in a stream.
The subject of another assay is spleen cells. The experiment in a line: Th1/Th2 cytokine profiling assay (Ovalbumin-restimulated spleen cells, CBA Kit). The settings on record: 10 micrograms per ml; Ovalbumin restimulation; 72 hours.

Protocol for RAW 264.7 cells: RAW 264.7 (Mouse leukaemic monocyte macrophage cell line) cells were obtained from ATCC and grown in RPMI 1640 medium containing 10% FBS. Cells were incubated in 12×75 mm tubes at 37° C. with test peptides—10 micrograms per ml—for 30 min prior to adding Fluorescein-labeled Escherichia coli bacteria as the agent to be ingested. After the cells were incubated for additional 60 min at 37° C. and allowed to ingest the Fluorescein-labeled Escherichia coli bacteria, cells were fixed with 1% paraformaldehyde. The samples were then analyzed by flow cytometry to determine the amount of phagocytosis as a function of brightness (the greater the phagocytic activity, the more fluorescence in the macrophage population). Data are reported as % positive and the mean fluorescence intensity (MFI) of positively stained cells.
Description for spleen cells: The Balb/c mice (originated in 1923, it is a popular strain and is used in many different research disciplines. Also classified as an inbred from the production of 20 or more successive brother-sister matings, the Balb/c mouse is albino and small in size) were immunized on Days 1, 15, and 29 with Ovalbumin (Ovalbumin is the main protein found in egg white, commonly used to stimulate an immunological reaction in test animals) in PBS (5 micrograms/injection). On day 50, spleens of the mice were harvested (3 weeks after last boost with Ovalbumin). Cells were cultured (2×10^5/well in triplicate) and incubated with culture medium or test peptides—10 micrograms per ml—for 30 min. Thereafter, additional Ovalbumin was added to the cells at 10 micrograms/ml for in vitro restimulation of the cells. 72 hours later, cell supernatants were harvested and assayed using the Becton Dickinson Mouse Th1/Th2 Cytokine CBA Kit. This kit can be used to measure Interleukin-2 (IL-2), Interleukin-4 (IL-4), Interleukin-5 (IL-5), Interferon-γ (IFN-γ), and Tumor Necrosis Factor-α (TNF-α) protein levels in a single sample. The kit performance has been optimized for analysis of physiologically relevant concentrations (pg/ml levels) of specific cytokine proteins in tissue culture supernatants and serum samples.

With `Cc1cn([C@H]2C[C@H](N=[N+]=[N-])[C@@H](CO)O2)c(=O)[nH]c1=O` [AZT], the “antiviral activity of positive control compounds (HIV-1)” value in the assay on HIV-1IIIB is listed as “expected levels of antiviral activity”.

Regarding `CC(C)(C)NC(=O)[C@@H]1CN(Cc2cccnc2)CCN1C[C@@H](O)C[C@@H](Cc1ccccc1)C(=O)N[C@H]1c2ccccc2C[C@H]1O` [indinavir], in the assay with HIV-1IIIB, the “antiviral activity of positive control compounds (HIV-1)” value was “expected levels of antiviral activity”.

In the case of “Val-Tyr-Pro-Asn-Gly-Ala-Glu-Asp-Glu-Ser-Ala-Glu-Ala-Phe-Pro-Leu-Glu-Phe-OH (VYPNGAEDESAEAFPLEF-OH) [peptide 2]”, the “inhibition of HBV replication as compared to the virus control infection” value in assay [1] amounted to 37.6%. In addition, the “inhibition of the migration of human endothelial cells” value in assay [2] came to 38%. In addition, in the assay with HUVEC, the “inhibition of the tube formation of human endothelial cells” value is on record as “did not inhibit”. Also, the “inhibition of HCMV plaque formation as compared to the virus control” value in the assay with HCMV strain AD169 is given as “did not inhibit”. For the same compound, in the assay with RAW 264.7 cells, the “increase on the phagocytic activity of murine macrophages” value turned out to be 28.6%. Further, in the assay on spleen cells, the “IFNγ spleen cells; TH1 response (% of control)” value is listed as 114.7 % of control, the “IL-2 spleen cells (% of control)” value is recorded as 53.9 % of control, the “IL-4 spleen cells; TH2 response (% of control)” value is 140.5 % of control and the “IL-5 spleen cells; TH2 response (% of control)” value was 65.5 % of control. Also, the “TNF-a spleen cells; TH1 response (% of control)” value in the assay with spleen cells is reported as 118.8 % of control.
